Measurements reported in patent EP2881399B1, “New thiosemicarbazone chelates having anticancer activity” (priority 2013, dated 2015).

How the values were obtained:
Assay type in all cases: cell-based
ECV304 = test: DNA fragmentation by diphenylamine reaction; details: ECV304, end of 72 hours at identified IC50 concentrations
Description: (§1) IC50 (the concentration inhibiting the proliferation of 50% of cells) of these 4 new compounds presented is identified by cytotoxicity tests in K562 (leukaemia) and ECV304 (endothelial) cells. Subsequently, it is studied to understand pathway through which the death of the cells is occurred (the mechanism of action) after the cells are treated for 72 hours at these concentrations. The apoptosis is analysed with immununocytochemical methods and flow cytometry and DNA fragmentation is analysed with diphenylamine reaction. […] The inventors also analysed DNA fragmentation rates occurred in cells at the end of 72 hours at identified IC50 concentrations.

K562 = test: DNA fragmentation by diphenylamine reaction; details: K562, end of 72 hours at identified IC50 concentrations
Description: as §1

K562 cells = test: flow cytometry with Annexin V and PI dyeing (apoptosis / necrosis); details: K562, 72 hours at IC50 concentration; for Living cell (%) / Necrotic cell (%) / Post- apoptotic cell (%) / Pre- apoptotic cell (%): Annexin V and PI; for Dead cell (%): addition of apoptotic and necrotic cells
Description: The Figure 2 gives the flow cytometry images of K562 cells, undergoing pre-apoptosis, post-apoptosis and necrosis, which are dyed with Annexin V and PI, after being incubated with thiosemicarbazones of the invention for 72 hours. Herein the images are as follows; A) Control, B) Compound I (0.6µg/ml), C) Compound II (0.6µg/ml), D) […], and E) Compound IV (0.1µg/ml). […] The inventors have characterized cells treated with compounds I-IV in the conditions of Figure 2 in order to better observe the mechanism of action of thiosemicarbazones presented in the current invention.

[1] = system: ECV304 (endothelial) cells; test: cytotoxicity test (MTT), IC50 after 72 hours incubation; details: incubated for 72 hours
Description: (§2) IC50 (the concentration inhibiting the proliferation of 50% of cells) of these 4 new compounds presented is identified by cytotoxicity tests in K562 (leukaemia) and ECV304 (endothelial) cells. Subsequently, it is studied to understand pathway through which the death of the cells is occurred (the mechanism of action) after the cells are treated for 72 hours at these concentrations. The apoptosis is analysed with immununocytochemical methods and flow cytometry and DNA fragmentation is analysed with diphenylamine reaction. […] DNA fragmentation is found high in all experiment groups (70-80%). These rates are compatible with IC50 obtained with MTT test because IC50 is the dose which kills the 50% of the cells. […] Furthermore, this rate is compatible with the percentage of total dead cells (52-64 %) which is the addition of apoptotic and necrotic cells obtained by annexin/PI dyeing.

K562 (leukaemia) cells = test: as above
Description: as §2

[2] = K562, as listed in Table 3, rounded, the concentration applied in the flow cytometry
[3] = K562 cells, incubated for 72 hours

Row | Molecule | DNA fragmentation % (ECV304) [%] | DNA fragmentation % (K562) [%] | Apoptosis / Necrosis ratio (K562 cells) | Living cell (%) (K562 cells) | Necrotic cell (%) (K562 cells) | Post- apoptotic cell (%) (K562 cells) | Pre- apoptotic cell (%) (K562 cells) | Dead cell (%) (K562 cells) | IC50 [1] [microgram/ml] | IC50 (K562 (leukaemia) cells; [2]) [µg/mL] | IC50 (K562 (leukaemia) cells; [3]) [microgram/ml]
1 | COc1ccc2c(c1)[O][Ni][O]c1c(O)cccc1C=NN=C(SC)N=C2 [Compound I, N(1)-3-hydroxysalicylidene-N(4)-4-methoxysalicylideneisothio-semicarbazidato Nickel (II)] | 20±0.5 | 80±1.4 | 13.56 | 35.18 | 2.57 | 27.39 | 34.85 | 64.82 | >5 | 0.6 | 0.61
2 | COc1ccc2c(c1)[O][Fe]([Cl])[O]c1cc(O)ccc1C=NN=C(SC)N=C2 [Compound IV, Monochloro-N(1)-4-hydroxysalicylidene-N(4)-4-methoxy-salicylideneisothiosemicarbazidato Iron (III)] | 28±2.4 | 84±1.4 | 17.77 | 41.07 | 2.11 | 19.32 | 37.5 | 58.93 | >5 | 0.1 | 0.1
3 | COc1ccc2c(c1)[O][Ni][O]c1cc(O)ccc1C=NN=C(SC)N=C2 [III, N(1)-4-hydroxysalicylidene-N(4)-4-methoxysalicylideneisothio-semicarbazidato Nickel (II)] | 22±1.7 | 75±1.4 | 11.82 | 36.11 | 3.17 | 23.23 | 37.5 | 63.89 | >5 | 0.6 | 0.65
4 | Monochloro-N(1)-3--hydroxysalicylidene-N(4)-4-methox salicylideneisothiosemicarbazidato Iron (III) [Compound II] | 18±2.1 | 79±0.7 | 9.80 | 47.4 | 3.15 | 18.54 | 30.9 | 52.6 | >5 | 0.6 | 0.62
